From patent publication US20040204341A1, “Nr2b receptor antagonists for the treatment or prevention of migraines” (priority 2001, published 2004)

- melting point: 122 to 123 °C
SMILES: O=C(NCC1CCN(C(=O)OCc2ccccc2)CC1)c1ccc(O)cc1 [Example 1, 4-[(4-Hydroxy-benzoylamino)-methyl]-piperidine-1-carboxylic acid benzyl ester]
